# Measurements as given in US3930838A, “S-benzyl-N,N-disec-butylthiocarbamate and its use as a rice field herbicide and a rice growth stimulant” (priority 1970, dated 1976).
# Several values for one entry are separate records, joined by “and”; a condition that tells them apart may be missing. Equal entries are not always repeated.
# Experiments:
# [1] = system: rice; test: Further test on rice in submerged culture at high doses (Example 8); type: in vivo; settings: 33 days
# Protocol: Into a set of cylindrical pots having a 200 cm^2 internal surface, sieved rice field earth in a quantity of 1 kg. per pot was introduced. After leveling and wetting with 200 cc. of water, the earth surface of the pots was uniformly sprayed with hydroacetone solutions containing, respectively, 0, 0.2, 0.3, and 0.4% active product (a.p.). 4 Ml. of the solution were sprayed onto each pot, so that the amount of active product in a set of four pots was 0, 4, 6, and 8 kg./ha., respectively. Immediately after spraying, each pot was filled with water to a level of 7 cm. over the soil surface. Thereafter, the sowing was carried out at the rate of 15 pre-germinated rice seeds per pot. Three repetitions were performed for each treatment. The pots were kept in an air-conditioned atmosphere with a daily temperature variation between 10° and 25°C and a 14 hour per day light period. After 24 days, the percentage of sprouted plants and the length of the shoot were recorded.
# In view of the foregoing results, a further test was conducted according to the methodology of Example 7. During such test, M3432 was employed in quantities of 10, 20, and 30 kg./ha. The results were gathered 33 days after the treatments.
# [2] = system: Echinocloa spp.; test: Activity on Echinocloa in flooded hothouse boxes, first sowing (Example 14); type: in vivo; settings: 24 days
# Protocol: A test was arranged in a hothouse on a set of boxes having a 1,000 cm^2 internal surface. 18 Kg. of sieved rice field earth were put into each box. After leveling, the earth surfaces of each of a set of six boxes were uniformly sprayed with hydroacetone solutions containing, respectively, 0, 0.5, 0.75, 1, 1.25, and 1.5% of M3432. […] Each box was flooded with a 10 cm. water layer measured from the earth surface. The sowing was carried out immediately afterwards with a pre-germinated (cv) RIBE rice seed, employing a quantity of 40 seeds per box.
# (§1) The same method described in Example 9 was followed, the only variation being in sowing Echinocloa spp. (40 slightly pregerminated seeds per box) instead of rice.
# 24 Days after the treatment, the results were observed.
# [3] = system: grass (Echinocloa spp.); test: Residual activity, second sowing with grass 24 days after treatment (Example 14); type: in vivo; settings: additional 24 days
# Protocol: as §1
# After the Echinocloa spp. plants were killed, a second sowing with grass was carried out in the same boxes, 24 days after the treatment, employing 20 slightly pre-germinated seeds per box.
# [4] = system: rice; test: Rice seed treatment, 5000 square meter field plots, test No. 3, rice (Example 17); type: in vivo; settings: 67 days; for Rice tiller dry weight / Rice tiller number: single 1 m^2 testing area
# Protocol: A further test was carried out outdoors on loam soil on plots of about 5000 square meters surface.
# After flooding each plot, seeds treated as in Test No. […] In all cases, the seen quantity was 150 kg./ha. 67 days after sowing, the results were gathered on 5 representative testing areas of 1 square meter each for each dosage level.
# [5] = Acute oral toxicity, rats; settings: rat, in vivo, per os
# [6] = system: rice; test: Stimulating action on rice, general statement; settings: in vivo
smiles,measurement,setting,value
"CCC(C)N(C(=O)SCc1ccccc1)C(C)CC (centres unmarked) [M3432, S-benzyl-N,N-disec.butylthiocarbamate]",Main root,[1]; 10 kg./ha.,11.3 cm.
same,Secondary roots,[1]; 10 kg./ha.,4.4 number per plant
same,Shoot,[1]; 10 kg./ha.,19.97 cm.
same,Sprouted plants,[1]; 10 kg./ha.,71.1%
same,Main root,[1]; 20 kg./ha.,10.6 cm.
same,Secondary roots,[1]; 20 kg./ha.,5.1 number per plant
same,Shoot,[1]; 20 kg./ha.,20.9 cm.
same,Sprouted plants,[1]; 20 kg./ha.,77.7%
same,Main root,[1]; 30 kg./ha.,11.1 cm.
same,Secondary roots,[1]; 30 kg./ha.,5.4 number per plant
same,Shoot,[1]; 30 kg./ha.,23.4 cm.
same,Sprouted plants,[1]; 30 kg./ha.,80.0%
same,Shoot,[2]; 2 kg./ha.,8.5 cm.
same,Stand,[2]; 2 kg./ha.,2.5%
same,Shoot,[2]; 4 kg./ha.,0 cm.
same,Stand,[2]; 4 kg./ha.,0%
same,Shoot,[2]; 6 kg./ha.,0 cm.
same,Stand,[2]; 6 kg./ha.,0%
same,Shoot,[2]; 8 kg./ha.,0 cm.
same,Stand,[2]; 8 kg./ha.,0%
same,Shoot,[3]; 2 kg./ha.,26.5 cm.
same,Stand,[3]; 2 kg./ha.,100%
same,Shoot,[3]; 4 kg./ha.,27.0 cm.
same,Stand,[3]; 4 kg./ha.,65%
same,Shoot,[3]; 6 kg./ha.,0 cm.
same,Stand,[3]; 6 kg./ha.,0%
same,Shoot,[3]; 8 kg./ha.,0 cm.
same,Stand,[3]; 8 kg./ha.,0%
same,Rice tiller dry weight,[4]; 3.4 kg./ha.,254.50 (g.)/m^2 and 331.10 (g.)/m^2 and 301.08 (g.)/m^2 and 373.50 (g.)/m^2 and 332.00 (g.)/m^2
same,Rice tiller number,[4]; 3.4 kg./ha.,432 (no.)/m^2 and 430 (no.)/m^2 and 421 (no.)/m^2 and 417 (no.)/m^2 and 392 (no.)/m^2
same,"Rice tiller dry weight, average on 5 testing areas",[4]; 3.6 kg./ha.,318.44 (g.)/m^2
same,"Rice tiller number, average on 5 testing areas",[4]; 3.6 kg./ha.,418.4 (no.)/m^2
same,"Rice tiller dry weight, average on 5 testing areas",[4]; 4.0 kg./ha.,438.01 (g.)/m^2
same,"Rice tiller number, average on 5 testing areas",[4]; 4.0 kg./ha.,559.0 (no.)/m^2
same,Rice tiller dry weight,[4]; 4.0 kg./ha.,473.98 (g.)/m^2 and 316.91 (g.)/m^2 and 484.50 (g.)/m^2 and 423.55 (g.)/m^2 and 491.10 (g.)/m^2
same,Rice tiller number,[4]; 4.0 kg./ha.,599 (no.)/m^2 and 440 (no.)/m^2 and 687 (no.)/m^2 and 523 (no.)/m^2 and 546 (no.)/m^2
same,LD50,[5],10200 mg/kg
same,Malformations of rice,[6],no malformations are noticed
